Source: US20090221653A1, “7-(2-amino-1-hydroxy-ethyl)-4-hydroxybenzothiazol-2(3H)-one-derivatives as beta2 adrenoreceptor agonists” (AstraZeneca AB, priority 2005, published 2009)
Where a name gives a salt, the structure may show the parent alone.

Columns and labels:
[1] = biological target: T1, Adrenergic β2 (Homo sapiens, UniProt P07550); experiment: Alternative Adrenergic β2 Mediated cAMP Production in H292 cells (AlphaScreen cAMP detection); format: cell-based; details: for EC50: cAMP, test compounds incubated 60 minutes, 300 μM rolipram, read-out: β2 pEC50 (converted); for β2 Int Act: fraction relative to the maximum activity determined for formoterol, 60 minutes incubation
T1 construct: endogenous in cells; host or cells: H292 cells
T1 sequence (P07550 whole entry): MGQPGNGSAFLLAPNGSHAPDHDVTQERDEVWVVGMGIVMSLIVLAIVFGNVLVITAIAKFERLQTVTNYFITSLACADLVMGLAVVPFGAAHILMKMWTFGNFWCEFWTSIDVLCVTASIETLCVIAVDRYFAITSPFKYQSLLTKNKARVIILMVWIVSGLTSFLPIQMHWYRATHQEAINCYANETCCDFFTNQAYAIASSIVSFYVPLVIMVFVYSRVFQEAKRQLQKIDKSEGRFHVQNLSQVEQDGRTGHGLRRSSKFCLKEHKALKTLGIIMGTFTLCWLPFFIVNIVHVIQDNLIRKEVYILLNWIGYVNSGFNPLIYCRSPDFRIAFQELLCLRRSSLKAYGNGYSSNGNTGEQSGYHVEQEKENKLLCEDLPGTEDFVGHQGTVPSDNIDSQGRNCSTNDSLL
Protocol: H292 cells were grown in 225 cm2 flasks incubator at 37° C., 5% CO2 in RPMI medium containing, 10% (v/v) FBS (foetal bovine serum) and 2 mM L-glutamine.
Adherent H292 cells were removed from tissue culture flasks by treatment with Accutase™ cell detachment solution for 15 minutes. Flasks were incubated for 15 minutes in a humidified incubator at 37° C., 5% CO2. Detached cells were re-suspended in RPMI media (containing 10% (v/v) FBS and 2 mM L-glutamine) at 0.05×10^6 cells per mL. 5000 cells in 100 μL were added to each well of a tissue-culture-treated 96-well plate and the cells incubated overnight in a humidified incubator at 37° C., 5% CO2. The culture media was removed and cells were washed twice with 100 μL assay buffer and replaced with 50 μL assay buffer (HBSS solution containing 10 mM HEPES pH7.4 and 5 mM glucose). […] Cells were incubated with rolipram for 10 minutes after which time test compounds were added and the cells were incubated for 60 minutes at room temperature. […] The reaction was stopped by removing supernatants, washing once with 100 μL assay buffer and replacing with 50 μL lysis buffer. The cell monolayer was frozen at −80° C. for 30 minutes (or overnight).
The concentration of cAMP (cyclic adenosine monophosphate) in the cell lysate was determined using AlphaScreen™ methodology. The frozen cell plate was thawed for 20 minutes on a plate shaker then 10 μL of the cell lysate was transferred to a 96-well white plate. 40 μL of mixed AlphaScreen™ detection beads pre-incubated with biotinylated cAMP, was added to each well and the plate incubated at room temperature for 10 hours in the dark. The AlphaScreen™ signal was measured using an EnVision spectrophotometer (Perkin-Elmer Inc.) with the recommended manufacturer's settings. cAMP concentrations were determined by reference to a calibration curve determined in the same experiment using standard cAMP concentrations. Concentration response curves for agonists were constructed and data was fitted to a four parameter logistic equation to determine both the pEC50 and Intrinsic Activity.

[2] = biological target: T2, β2 receptor (Homo sapiens, UniProt P07550); experiment: Adrenergic β2 mediated cAMP production in H292 cells (AlphaScreen cAMP detection); format: cell-based; details: for EC50: cAMP, test compounds incubated 10 minutes, 300 μM rolipram; for Intrinsic Activity: fraction relative to the maximum activity determined for formoterol, 10 minutes incubation
T2 construct: endogenous in cells; host or cells: H292 cells
T2 sequence (P07550 whole entry): as above
Protocol: H292 cells were grown in RPMI (Roswell Park Memorial Institute) medium containing, 10% (v/v) FBS (foetal bovine serum) and 2 mM L-glutamine. Cells were grown in 225 cm2 flasks containing 25 mL media in a humidified incubator at 37° C., 5% CO2. Cells were harvested from the flask and passaged at a 1 in 10 dilution once per week.
The media from flasks containing H292 cells was removed, rinsed with 10 mL PBS (phosphate buffered saline) and replaced with 10 mL Accutase™ cell detachment solution. Flasks were incubated for 15 minutes in a humidified incubator at 37° C., 5% CO2. The cell suspension was counted and the cells re-suspended in RPMI media (containing 10% (v/v) FBS and 2 mM L-glutamine) at 0.05×10^6 cells per mL. 5000 cells in 100 μL were added to each well of a tissue-culture-treated 96-well plate and the cells incubated overnight in a humidified incubator at 37° C., 5% CO2. The culture media was removed, washed twice with 100 μL assay buffer and replaced with 50 μL assay buffer. Cells were rested at room temperature for 20 minutes after which time 25 μL of rolipram (1.2 mM made up in assay buffer containing 2.4% (v/v) dimethylsulphoxide) was added. Cells were incubated with rolipram for 10 minutes after which time test compounds (made up as ×4 concentrated stocks in assay buffer containing 4% (v/v) dimethylsulphoxide) were added and the cells were incubated for 10 minutes at room temperature. Final rolipram concentration in the assay was 300 μM and final vehicle concentration was 1.6% (v/v) dimethylsulphoxide. The reaction was stopped by removing supernatants, washing once with 100 μL assay buffer and replacing with 50 μL lysis buffer. The cell monolayer was frozen at −80° C. for 30 minutes (or overnight).
The concentration of cAMP (cyclic adenosine monophosphate) in the cell lysate was determined using the AlphaScreen™ methodology. The frozen cell plate was thawed for 20 minutes on a plate shaker then 10 μL of the cell lysate was transferred to a 96-well white plate. 40 μL of mixed AlphaScreen™ detection beads (containing equal volumes of donor beads (pre-incubated with biotinylated cAMP in the dark for 30 minutes) and acceptor beads), was added to each well and the plate incubated at room temperature for 10 hours in the dark. The AlphaScreen™ signal was measured using an EnVision spectrophotometer (Perkin-Elmer Inc.) with the recommended manufacturer's settings. cAMP concentrations were determined by reference to a calibration curve determined in the same experiment using standard cAMP concentrations (made up in lysis buffer in a 96-well tissue-culture-treated plate and frozen/thawed alongside the test samples) and detected using the same protocol. Concentration response curves for agonists were constructed to determine both the pEC50 and Intrinsic Activity.

[3] = biological target: T3, recombinant human Dopamine Subtype D2s receptors (Homo sapiens, UniProt P14416); experiment: Dopamine D2 selectivity assay, inhibition of [3H]-spiperone binding; details: membranes, [3H]-spiperone 0.16 nM; read-out: D2 bind pIC50 (converted)
T3 construct: purchased Perkin Elmer
T3 sequence (P14416 1-414 isoform P14416-2): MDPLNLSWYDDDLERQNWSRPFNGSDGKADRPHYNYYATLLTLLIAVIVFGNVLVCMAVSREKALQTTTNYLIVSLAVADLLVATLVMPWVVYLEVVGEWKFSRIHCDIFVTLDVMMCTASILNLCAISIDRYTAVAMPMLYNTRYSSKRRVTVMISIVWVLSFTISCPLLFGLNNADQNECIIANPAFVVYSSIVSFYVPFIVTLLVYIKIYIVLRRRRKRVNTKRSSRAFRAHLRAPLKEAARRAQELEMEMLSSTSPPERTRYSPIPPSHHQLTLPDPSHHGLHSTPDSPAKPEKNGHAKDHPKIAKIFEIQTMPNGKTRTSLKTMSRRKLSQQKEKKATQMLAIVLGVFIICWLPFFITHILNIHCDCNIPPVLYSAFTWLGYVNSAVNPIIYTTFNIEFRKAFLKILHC
Protocol: Membranes containing recombinant human Dopamine Subtype D2s receptors were obtained from Perkin Elmer. These were diluted in Assay Buffer ([…] HEPES, 1 mM EDTA, 120 mM NaCl, 0.1% gelatin, pH 7.4) to provide a final concentration of membranes that gave a clear window between maximum and minimum specific binding.
Assays were performed in U-bottomed 96-well polypropylene plates. […] For each assay plate 8 replicates were obtained for [^3H]-spiperone binding in the presence of 30 μL vehicle (10% (v/v) DMSO in Assay Buffer; defining maximum binding) or 30 μL Haloperidol (10 μM final concentration; defining non-specific binding (NSB)). Membranes were then added to achieve a final volume of 300 μL. The plates were incubated for 2 hours at room temperature and then filtered onto PEI coated GF/B filter plates, pre-soaked for 1 hour in Assay Buffer, using a 96-well plate Tomtec cell harvester. Five washes with 250 μL wash buffer (50 mM HEPES, 1 mM EDTA, 120 mM NaCl, pH 7.4) were performed at 4° C. to remove unbound radioactivity. The plates were dried then sealed from underneath using Packard plate sealers and MicroScint-O (50 μL) was added to each well. The plates were sealed (TopSeal A) and filter-bound radioactivity was measured with a scintillation counter (TopCount, Packard BioScience) using a 3-minute counting protocol. Total specific binding (B0) was determined by subtracting the mean NSB from the mean maximum binding. NSB values were also subtracted from values from all other wells.

EC50 [1] [nM]	β2 Int Act [1]	EC50 [2] [nM]	Intrinsic Activity [2]	IC50 [3] [nM]	Compound
3.16	1	5.01	0.8		CN(CCCSCCNC[C@H](O)c1ccc(O)c2[nH]c(=O)sc12)CCc1ccccc1 [Example 12, 4-Hydroxy-7-((1R)-1-hydroxy-2-{[2-({3-[methyl(2-phenylethyl)amino]propyl}-thio)ethyl]amino}ethyl)-1,3-benzothiazol-2(3H)-one trifluoroacetate]
0.0501	0.9	0.0631	0.7		Cl.O=c1[nH]c2c(O)ccc([C@@H](O)CNCCCSCCCOCCc3ccc(Br)cc3)c2s1 [Example 5, 7-((1R)-2-{[3-({3-[2-(4-Bromophenyl)ethoxy]propyl}thio)propyl]amino}-1-hydroxyethyl)-4-hydroxy-1,3-benzothiazol-2(3-H)-one hydrochloride]
	1		1.0	1000	Cl.O=c1[nH]c2c(O)ccc([C@@H](O)CNCCSCCCOCCc3ccccc3)c2s1 [Example 8, 4-Hydroxy-7-{(1R)-1-hydroxy-2-[(2-{[3-(2-phenylethoxy)propyl]thio}-ethyl)amino]ethyl}-1,3-benzothiazol-2(3H)-one hydrochloride]
